Here are results for three compounds from publication PMC8826726, “Selective Toxicity of Secondary Metabolites from the Entomopathogenic Bacterium Photorhabdus luminescens sonorensis against Selected Plant Parasitic Nematodes of the Tylenchina Suborder” (Microbiology Spectrum, 2022).

Values after ≈ are worked out from the molar mass of the structure shown.

For data set [1], the system named is Meloidogyne incognita. Particulars: cited from earlier work.
Data set [2] has as its system Caenorhabditis elegans. Particulars: cited from earlier work.
Data set [3] concerns Meloidogyne incognita J2 juveniles. Nature of the data set: microbe, parasite or virus in culture. Particulars: for LC50 / LC10 / LC25 / LC90: mortality. An excerpt: (§1) Only soil inhabiting (free-living or infective) stages of target and non-target nematode species were considered in the present study. All nematode cultures (except T. semipenetrans) were maintained in the Stock laboratory (University of Arizona). M. incognita was reared in planta using susceptible tomato plants (cv. Roma VF; seedlings with five or six true leaves; courtesy of Dr. J. Brown, University of Arizona). Eggs of M. incognita were extracted from infected tomato plant roots, and J2 were collected after hatching, following the procedures of Atamian et al. ([50]). T. semipenetrans was isolated from infested lemon orchards at the Yuma Agricultural Center, University of Arizona (Yuma, AZ, USA). Eggs of T. semipenetrans were extracted from infected lemon tree roots using the procedures of El-Borai et al. ([51]), and J2 were collected using the same procedure as that described for M. incognita.
(§2) Twelve-well tissue culture plates were used as the experimental arena. For each of the tested nematode species, an inoculum of 100 nematodes, suspended in 20 μL distilled water, was added to each well. […] For PPA (Enamine) and indole (Alfa Aesar), 13 incremental concentrations were tested ranging from 10 to 400 μg/mL in 1 mL of distilled water (DMSO ≤ 1%; vol/vol). […] Distilled water with 1% DMSO was used as the negative control. To measure the combined nematicidal effects of the three SMs, equal concentrations of two or three SMs were mixed in 1:1 or 1:1:1 mixture. For example, a 20 μg/mL solution of a two-SM mixture contained 20 μg from metabolite A and 20 μg metabolite B, dissolved in 1 mL distilled water. Individual or combined SMs from 10 μg/mL to 200 μg/mL (in 20 μg/ml increments) were prepared in distilled water (DMSO ≤ 1%; vol/vol) and used for the bioassays.
(§3) The well plates were covered with their lids and incubated at 25°C in the dark. For the targeted nematode species, nematicidal activity was recorded at 24 h, 48 h, and 72 h after initial exposure to the individual SMs. For the non-target species, data were only recorded at 24 h after initial exposure to the individual SMs. For SM mixtures, mortality was recorded 24 h after initial exposure of the targeted nematode species. Nematodes were probed with a needle to assess if they were alive, dead, or paralyzed. […] Those nematodes that resumed activity upon probing were considered to suffer from temporary paralysis (impaired motility). Paralyzed nematodes were rinsed at least three times in distilled water and held for an additional 24 h to check for their recovery from temporarily paralysis. […] Experiments were repeated at least three times per treatment for each concentration tested.
(§4) For the toxicity data visualization, the relationship between percent mortality or temporary paralysis and metabolite concentration were described by a sigmoidal curve, which was fitted by the logistical function using the statistical software package SigmaPlot for Windows, version 14.0 (Systat Software Inc.). […] Concentration-response data of single metabolites or SM mixtures were pooled for each concentration and subjected to probit regression analysis using the Polo Plus program (LeOra Software). The LC or EC values, along with the corresponding 95% confidence intervals, were estimated for each single SM or SM mixture at each exposure time, depending on the experimental setting.

The test system of data set [4] is Tylenchulus semipenetrans J2 juveniles. Nature of the data set: microbe, parasite or virus in culture. Particulars: mortality.
Source text: as §1, §2, §3, §4

Data set [5] is described as follows: in vitro.
Source text: The non-target species, C. elegans wild-type strain N2 Bristol (courtesy of Dr. G.L. Sutphin, University of Arizona) and Rhabditis blumi DF5010 (Caenorhabditis Genetics Center, University of MN, USA) were maintained in vitro in nematode growth medium (NGM) agar plates seeded with Escherichia coli (Migula) Castellani and Chalmers, strain OP-50, as described previously ([52]). Mixed juveniles and hermaphrodites (5 to 6 days old) were collected from the culture plates prior to the bioassays. Infective third-stage juveniles (IJs) of three non-target entomopathogenic nematode species (H. sonorensis Caborca strain, H. bacteriophora TT01 strain, and Steinernema carpocapsae All strain) were also maintained by rearing them in vivo using wax moth larvae (Galleria mellonella) as the host, according to procedures described previously ([53]), and collected for bioassays within 2 to 4 days of their emergence from nematode-infected cadavers. Nematode population density (number of nematodes per ml) was standardized prior to setting up well-plate bioassays, by adjusting each nematode suspension to a concentration of 100 nematodes in 20 μL of distilled water.
as §2, §3, §4

Data set [6] deals with non-target nematodes versus targeted PPNs. Nature of the data set: Selectivity index, non-target nematodes over targeted PPNs. The settings on record: 24 h LC50. Here is the method:
The selectivity index of a given SM was calculated by dividing the averages of the LC50 or EC50 values obtained against each of the selected non-target nematodes by the LC50 or the EC50 values observed for each of the targeted PPN tested.

Data set [7] in a line: In vitro nematicidal assay, values summarised over the non-target nematodes. It counts as cell-based. Particulars: non-target nematodes in 12-well tissue culture plates; 24 h exposure; species for which an LC50 was established; read-out: LC50 values, range over non-target nematodes.
Data set [8] relates to HFF cells (human foreskin cells). Nature of the data set: MTT cytotoxicity assay. Particulars: tested at 50, 100, 200 μM, data not shown. It is filed as cell-based. As to the method:
(§5) The non-cancerous HFF cells (human foreskin cells) and three human cancer cell lines, NCI-H460 (non-small cell lung cancer), SF-268 (central nervous system glioma), and MCF-7 (breast cancer) were used to evaluate the in vitro cytotoxicity of the isolated Photorhabdus SMs. The MTT (3-(4,5-dimethylthiazol-2-yl)-2,5-diphenyltetrazolium bromide) colorimetric method ([54]) was used with doxorubicin as the positive control, and DMSO as the negative control. Photorhabdus SMs were tested at 50, 100, and 200 μM concentrations, and the assays were repeated three times.

Data set [9] has as its system MCF-7 (breast cancer). Nature of the data set: MTT cytotoxicity assay. It is filed as cell-based, human. Particulars: tested at 50, 100, 200 μM, data not shown. Here is the method: as §5
For orientation: Tetrazolium assays rely on reduction of a dye to a coloured formazan, in cell work by metabolically active cells.

Data set [10] has as its system NCI-H460 (non-small cell lung cancer). Nature of the data set: MTT cytotoxicity assay. It is filed as cell-based, human. Particulars: tested at 50, 100, 200 μM, data not shown. Here is the method: as §5
The test system of data set [11] is SF-268 (central nervous system glioma). Nature of the data set: MTT cytotoxicity assay. It is filed as cell-based, human. Particulars: tested at 50, 100, 200 μM, data not shown. As to the method:
as §5

Turning to `CC(C)c1c(O)cc(C=Cc2ccccc2)cc1O` [3,5-dihydroxy-4-isopropylstilbene], the Nematicidal activity result in data set [1] is given as “no activity”. In addition, in data set [2], the “Toxicity to non-target bacterivorous nematode” value is on record as “toxic at similar concentrations (up to 100 μg/ml)”.

The term LC50 denotes the concentration lethal to half of the exposed cells or organisms. Regarding `O=C(O)CC/C=C/c1ccccc1` [PPA, (4E)-5-phenylpent-4-enoic acid], the “Reduction of LC50 for M. incognita versus T. semipenetrans” value in data set [3] (24 h postexposure) was determined as 33%. Further, the LC50 amounted to 44 mg/L (≈ 250 µM) in [3] (Meloidogyne incognita, 24 h, 24 h exposure); 42 mg/L (≈ 238 µM) in data set [3] (Meloidogyne incognita, 48 h, 48 h exposure); 38.9 mg/L (≈ 221 µM) in data set [3] (Meloidogyne incognita, 72 h, 72 h exposure); 44.4 mg/L (≈ 252 µM) in [3] (24 h exposure); 66 mg/L (≈ 375 µM) in [4] (Tylenchulus semipenetrans, 24 h, 24 h exposure); 59.8 mg/L (≈ 339 µM) in [4] (Tylenchulus semipenetrans, 48 h, 48 h exposure). Besides, the LC50 turned out to be 42.2 mg/L (≈ 239 µM) in data set [4] (Tylenchulus semipenetrans, 72 h, 72 h exposure) and 66.3 mg/L (≈ 376 µM) in data set [4] (24 h exposure). Also, the LC10 in data set [3] (24 h exposure) is given as 29.4 (22.1, 34.6) μg/mL; in data set [3] (48 h exposure) it was 27.6 (19.0, 33.3) μg/mL; in data set [3] (72 h exposure), 24.8 (16.0, 31.0) μg/mL; in [4] (24 h exposure), 50.8 (27.0, 60.5) μg/mL; in data set [4] (48 h exposure), 42.7 (31.2, 50.0) μg/mL; in data set [4] (72 h exposure) it was 19.3 (3.06, 31.9) μg/mL. Moreover, the LC25 in data set [3] (24 h exposure) is reported as 35.8 (29.0, 40.5) μg/mL; in [3] (48 h exposure), 33.6 (25.7, 39.0) μg/mL; in data set [3] (72 h exposure), 30.7 (22.0, 36.6) μg/mL; in data set [4] (24 h exposure) it was 57.6 (36.6, 66.0) μg/mL; in data set [4] (48 h exposure), 50.1 (39.8, 56.6) μg/mL; in data set [4] (72 h exposure), 28.0 (8.0, 42.7) μg/mL. In addition, the LC90 in data set [3] (24 h exposure) is 66.9 (61.4, 75.5) μg/mL; in [3] (48 h exposure) it was 63.9 (57.2, 75.9) μg/mL; in data set [3] (72 h exposure), 61.0 (52.7, 76.5) μg/mL; in data set [4] (24 h exposure), 86.4 (78.2, 109.0) μg/mL; in data set [4] (48 h exposure) it was 83.7 (76.3, 96.6) μg/mL; in data set [4] (72 h exposure) it was 92.4 (60.6, 312.0) μg/mL. Also, the LC50 at 24 h in data set [5] (All, Steinernema carpocapsae) is over 400 mg/L; in data set [5] (Caborca, Heterorhabditis sonorensis) it was over 400 mg/L; in [5] (DF5010, Rhabditis blumi), 346 mg/L (≈ 1960 µM); in data set [5] (N2 Bristol, Caenorhabditis elegans) it was 278 mg/L (≈ 1580 µM); in [5] (TT01, Heterorhabditis bacteriophora), over 400 mg/L; in [7], 278 to 421 mg/L (≈ 1580 to 2390 µM). Further, in data set [6], the “Selectivity index (LC50 for the non-target nematodes over those for the targeted PPNs)” value fell in the range of 6 to 8.

Turning to `O=C(O)/C=C/c1ccccc1` [t-CA, trans-cinnamic acid], the “Reduction of the LC90 at 72 h versus 24 h” value in data set [3] (M. incognita) is 34%. Also, the LC10 in data set [3] (24 h exposure) is listed as 42.7 (25.6, 52.2) μg/mL; in data set [3] (48 h exposure), 37.3 (19.1, 47.2) μg/mL; in data set [4] (24 h exposure) it was 53.1 (41.2, 61.2) μg/mL; in [4] (48 h exposure) it was 51.5 (39.7, 59.1) μg/mL. In addition, the LC25 is 53.0 (38.0, 61.6) μg/mL in data set [3] (24 h exposure); 45.7 (29.0, 55.1) μg/mL in data set [3] (48 h exposure); 45.2 (37.7, 50.4) μg/mL in data set [3] (72 h exposure); 62.8 (52.2, 70.0) μg/mL in data set [4] (24 h exposure); 60.0 (49.6, 66.6) μg/mL in [4] (48 h exposure); 54.9 (44.4, 61.8) μg/mL in data set [4] (72 h exposure). The LC90 in data set [3] (24 h exposure) is 106.0 (89.6, 159.0) μg/mL; in data set [3] (48 h exposure), 87.9 (73.0, 137.0) μg/mL; in data set [3] (72 h exposure) it was 69.7 (62.6, 82.9) μg/mL; in [4] (24 h exposure) it was 108.0 (100.0, 121.0) μg/mL; in [4] (48 h exposure) it was 98.0 (90.7, 110.0) μg/mL; in data set [4] (72 h exposure), 95.8 (88.2, 108.0) μg/mL. Also, the “In vitro cytotoxicity: none even at the highest concentration tested” value in data set [8], in data set [9], in data set [10] and in data set [11] was over 200 µM each time.
